Paper PMC8780828 (Viruses, 2021)
Where two headings read alike, the source gives them in different places.

What was measured:
in vitro = details: human, Caco-2, A-to-B Papp (cell batch quality control)
[1] = system: pseudovirus NL4-3ΔEnv-NanoLuc/SARS-CoV-2; test: organism not typed; format: cell-based; details: HT-1080; n=3
[2] = system: pseudovirus NL4-3ΔEnv-NanoLuc/SARS-CoV-2; test: organism not typed; format: cell-based; details: A549-ACE2; n=3
[3] = system: pseudovirus NL4-3ΔEnv-NanoLuc/SARS-CoV; test: microbe, parasite or virus in culture; format: cell-based; details: Severe acute respiratory syndrome coronavirus, HT-1080
[4] = system: pseudovirus NL4-3ΔEnv-NanoLuc/SARS-CoV; test: microbe, parasite or virus in culture; format: cell-based; details: Severe acute respiratory syndrome coronavirus, A549-ACE2
[5] = system: pseudovirus NL4-3ΔEnv-NanoLuc/MERS-CoV; test: microbe, parasite or virus in culture; format: cell-based; details: Middle East respiratory syndrome-related coronavirus, Huh-7
[6] = system: pseudovirus NL4-3ΔEnv-NanoLuc/MERS-CoV; test: microbe, parasite or virus in culture; format: cell-based; details: Middle East respiratory syndrome-related coronavirus, MRC5
[7] = system: control pseudovirus NL4-3.Luc.R-E-/A-MLV; test: Control pseudovirus A-MLV assay in 293T/ACE2 cells; format: cell-based, amphotropic murine leukemia virus (A-MLV); details: NL43, 293T/ACE2
[8] = system: NL4-3ΔEnv-NanoLuc/SARS-CoV-2; test: organism not typed; format: cell-based; details: for IC50: read-out: IC50 (range over the three cell lines)
[9] = biological target: SARS-CoV-2 spike S1 subunit protein (Severe acute respiratory syndrome coronavirus 2, UniProt P0DTC2); format: binding
[10] = system: pseudovirus NL4-3ΔEnv-NanoLuc/SARS-CoV-2; test: SARS-CoV-2 pseudovirus assay with pre-treated 293T/ACE2 cells; format: cell-based; details: 293T/ACE2 cells pre-treated with compound 30 min before infection
[11] = system: SARS-CoV-2 (US_WA-1/2020); format: cell-based
β-lactamase = format: biochemical
Trypsin = format: biochemical
[12] = biological target: malate dehydrogenase (MDH); format: biochemical
[13] = rat, in vivo
in vivo = details: female, Sprague Dawley, rat; for MRT inf: MRT0-inf_obs
[14] = system: pseudovirus NL4-3ΔEnv-NanoLuc/SARS-CoV-2; test: organism not typed; format: cell-based; details: 293T/ACE2
[15] = system: pseudovirus NL4-3ΔEnv-NanoLuc/SARS-CoV; test: microbe, parasite or virus in culture; format: cell-based; details: Severe acute respiratory syndrome coronavirus, 293T/ACE2; n=3
MERS-CoV pseudovirus = test: microbe, parasite or virus in culture; format: cell-based
[16] = female, Sprague Dawley, iv, 5 mg/kg

## C[C@H]1O[C@@H](O[C@H]2[C@@H](O)C[C@H](O[C@H]3[C@@H](O)C[C@H](O[C@H]4CC[C@@]5(C)[C@H](CC[C@@H]6[C@@H]5C[C@@H](O)[C@]5(C)[C@@H](C7=CC(=O)OC7)CC[C@]65O)C4)O[C@@H]3C)O[C@@H]2C)C[C@H](O)[C@@H]1O [Digoxin, reference compound]
In vitro
  Papp A→B: 0.34 ×10⁻⁶ cm/s

## O=C(O)c1cccc(-c2ccc(/C=C3\SC(=S)N(CCc4ccccc4)C3=O)o2)c1 [NBCoV2]
[1]
  IC50: 25.3 ± 0.6 nM
[2]
  IC50: 58 ± 1.7 nM
[3]
  IC50: 19.3 ± 1.1 nM
[4]
  IC50: 111 ± 9 nM
[5]
  IC50: 112 ± 7 nM
[6]
  IC50: 77 nM
[7]
  IC50: 783 ± 76 nM
[8]
  IC100 (range of IC100 values detected in the three cell lines): 0.3 to 1 µM
  IC50: 22.8 to 58 nM
[9]
  kd: 0.0251 s⁻¹
[10]
  IC50: > 2000 nM
[11]
  IC100: > 10 µM
β-lactamase
  IC50: > 2000 nM
Trypsin
  IC50: > 2000 nM
[12]
  IC50: > 2000 nM
[13]; [16]
  CLobs: 0.00027 (mg/kg)/(ng/mL)/h
  Vss_obs: 0.0014 (mg/kg)/(ng/mL)
[13]; iv, 5 mg/kg
  AUC0-t: 18,074.45 ng/mL ∗ h
[13]; po, 10 mg/kg
  AUC0-t: 318.78 ng/mL ∗ h
  Vz/F_obs: 0.1759 (mg/kg)/(ng/mL)
In vivo; F% (bioavailability)
  bioavailability: 0.9%
In vivo; iv, 5 mg/kg
  C0: 1710 ng/mL
  Tmax: 2 h
  Cmax: 2220 ng/mL
  MRT inf: 5.09 h
In vivo; iv, 5 mg/kg, t1/2
  half-life: 3.52 h
In vivo; po, 10 mg/kg
  Tmax: 4 h
  Cmax: 30.1 ng/mL
  MRT inf: 7.28 h
In vivo; po, 10 mg/kg, t1/2
  half-life: 3.96 h
In vivo; t1/2 (range PO and IV)
  half-life: 3.5 to 3.9 h

## O=C(O)c1cc(-c2ccc(/C=C3\SC(=S)N(CCc4ccccc4)C3=O)o2)ccc1F [NBCoV3]
[14]
  IC50: 60.1 ± 8.5 nM
[1]
  IC50: 64 ± 18 nM
[2]
  IC50: 120 ± 5 nM
[15]
  IC50: 17.8 ± 4 nM
[3]; n=3, read-out: IC50
  IC50: 25.7 ± 0.6 nM
[4]; n=3, read-out: IC50
  IC50: 157 ± 12.5 nM
[5]; n=3, read-out: IC50
  IC50: 158 ± 14 nM
[6]; n=3, read-out: IC50
  IC50: 123 ± 17 nM
[7]
  IC50: 960 ± 57 nM
[8]
  IC100 (range of IC100 values detected in the three cell lines): 0.5 to 1.2 µM
  IC50: 60.1 to 120 nM
[10]
  IC50: > 2000 nM
[11]
  IC100: > 10 µM
β-lactamase
  IC50: > 2000 nM
Trypsin
  IC50: > 2000 nM
[12]
  IC50: > 2000 nM

## Cc1ccc(-c2ccc(/C=C3\SC(=S)N(CCc4ccccc4)C3=O)o2)cc1C(=O)O [NBCoV4]
[14]
  IC50: 26 ± 1 nM
[1]
  IC50: 47.7 ± 16 nM
[2]
  IC50: 73 ± 4.1 nM
[15]
  IC50: 80 ± 2 nM
[3]; n=3, read-out: IC50
  IC50: 54 ± 3.5 nM
[4]; n=3, read-out: IC50
  IC50: 100 ± 13 nM
[5]; n=3, read-out: IC50
  IC50: 131 ± 6 nM
[6]; n=3, read-out: IC50
  IC50: 80 ± 18 nM
[7]
  IC50: 1620 ± 115 nM
[8]
  IC100 (range of IC100 values detected in the three cell lines): 0.3 to 1 µM
  IC50: 26 to 73 nM
[10]
  IC50: > 2000 nM
[11]
  IC100: > 10 µM
β-lactamase
  IC50: > 2000 nM
Trypsin
  IC50: > 2000 nM
[12]
  IC50: > 2000 nM

## Cc1c(C(=O)O)cccc1-c1ccc(/C=C2\SC(=S)N(CCc3ccccc3)C2=O)o1 [NBCoV5]
[14]
  IC50: 1200 ± 240 nM
[1]
  IC50: 1050 ± 252 nM
[2]
  IC50: > 2000 nM
[15]
  IC50: 1850 ± 179 nM
[3]; n=3, read-out: IC50
  IC50: 1760 ± 330 nM
[4]; n=3, read-out: IC50
  IC50: > 2000 nM
[5]; n=3, read-out: IC50
  IC50: > 2000 nM
[6]; n=3, read-out: IC50
  IC50: > 2000 nM
[7]
  IC50: > 2000 nM
[8]
  IC100 (range of IC100 values detected in the three cell lines): >2 µM
[10]
  IC50: > 2000 nM
[11]
  IC100: > 10 µM
β-lactamase
  IC50: > 2000 nM
Trypsin
  IC50: > 2000 nM
[12]
  IC50: > 2000 nM
MERS-CoV pseudovirus
  MERS-CoV inhibitory activity: no MERS-CoV inhibitory activity

## CCc1ccc(-c2ccc(/C=C3\SC(=S)N(CCc4ccccc4)C3=O)o2)cc1C(=O)O [NBCoV6]
[14]
  IC50: 185 ± 5.8 nM
[1]
  IC50: 245 ± 5 nM
[2]
  IC50: 613 ± 72 nM
[15]
  IC50: 175 ± 7 nM
[3]; n=3, read-out: IC50
  IC50: 133 ± 9.5 nM
[4]; n=3, read-out: IC50
  IC50: 867 ± 62 nM
[5]; n=3, read-out: IC50
  IC50: 569 ± 31 nM
[6]; n=3, read-out: IC50
  IC50: 945 ± 77 nM
[7]
  IC50: > 2000 nM
[8]
  IC100 (range of IC100 values detected in the three cell lines): 1 to 3 µM
[10]
  IC50: > 2000 nM
[11]
  IC100: > 10 µM

## O=C(O)c1cccc(-c2ccc(/C=C3\SC(=S)N(CCc4ccccc4)C3=O)o2)c1F [NBCoV7]
[14]
  IC50: 298 ± 60 nM
[1]
  IC50: 290 ± 57 nM
[2]
  IC50: 416 ± 25 nM
[15]
  IC50: 111 ± 1.7 nM
[3]; n=3, read-out: IC50
  IC50: 52 ± 8.9 nM
[4]; n=3, read-out: IC50
  IC50: 271 ± 76 nM
[5]; n=3, read-out: IC50
  IC50: 933 ± 153 nM
[6]; n=3, read-out: IC50
  IC50: 927 ± 63.5 nM
[7]
  IC50: > 2000 nM
[8]
  IC100 (range of IC100 values detected in the three cell lines): 1 to 3 µM
[10]
  IC50: > 2000 nM
[11]
  IC100: > 10 µM

## O=C(O)c1cc(-c2ccc(/C=C3\SC(=S)N(CCc4ccccc4)C3=O)o2)ccc1Br [NBCoV8]
[14]
  IC50: 65.8 ± 6.2 nM
[1]
  IC50: 94 ± 9 nM
[2]
  IC50: 254 ± 27 nM
[15]
  IC50: 128 ± 6.7 nM
[3]; n=3, read-out: IC50
  IC50: 225 ± 26 nM
[4]; n=3, read-out: IC50
  IC50: 700 ± 70 nM
[5]; n=3, read-out: IC50
  IC50: 509 ± 43 nM
[6]; n=3, read-out: IC50
  IC50: 559 ± 66 nM
[7]
  IC50: > 2000 nM
[8]
  IC100 (range of IC100 values detected in the three cell lines): 1 to 2.5 µM
[10]
  IC50: > 2000 nM
[11]
  IC100: > 10 µM
